Assays:
Type in all cases: cell-based, Streptococcus pneumoniae
D39 (serotype 2) capsule = assay: Total capsular polysaccharide (CPS) immunoblot with densitometry
Protocol: (§1) S. pneumoniae strains were cultured with DFMO and AMXT 1501 at varying final concentrations of 1/2, 1/4, and 1/8 MIC to OD600 0.2–0.3 either individually or together to estimate any additive or synergistic effects. Capsular polysaccharides (CPS) were extracted and quantified in triplicate, as described previously[26] with slight modification. Briefly, CPS was extracted in a lysis buffer (4% deoxycholate, 50 µg/mL DNAse I and 50 µg/mL RNAse A) at 37 °C for 10 min and centrifuged at 18,000×g for 10 min. The supernatant (2 µL) was spotted on a 0.2-µm-pore-size nitrocellulose membrane (Thermo Fisher Scientific, Waltham, MA, USA) and oven dried at 60 °C for 15 min. The membranes were blocked and incubated with different types of antisera for capsule detection: antisera type- 4 (for TIGR4), 2 (for D39), polyclonal (for EF3030) and 3 (for WU2) (Cedarlane, Burlington, NC, USA). A conjugated polyclonal goat anti-rabbit IgG-HRP (Agilent Technologies, Santa Clara, CA, USA) was used for enhanced chemiluminescence (ECL) detection in all the strains (Thermo Fisher Scientific, Waltham, MA, USA) and scanned using a ChemiDoc XRS+ with Image Lab software (Bio-Rad, Hercules, CA, USA). Densitometry analysis of the immunoblot was done with NIH ImageJ software.
(§2) We determined the impact of varying concentrations of DFMO (1/8 to 1/2 MIC) on CPS in all serotypes (2, 4, 19F, and 3) used in this study. […] D39 was treated with 1/8 MIC DFMO alone, 1/4 MIC agmatine (Agm) alone, a combination of 1/8 MIC DFMO and 1/4 MIC Agm, and a control without DFMO or Agm. CPS was extracted as described in the previous section and immunoblot analysis with type 2 antisera was performed to detect CPS semi-quantitatively.

[1] = system: EF3030 (serotype 19F) capsule; assay: as above
Protocol: as §1, §2

[2] = system: TIGR4 (serotype 4) capsule; assay: as above
Protocol: as §1, §2

WU2 (serotype 3) capsule = assay: as above
Protocol: as §1, §2

S. pneumoniae TIGR4 = settings: DFMO 137 mM (1/2 MIC), n = 5
Protocol: This was done to directly compare possible changes in intracellular concentrations of polyamines and capsule precursors as a result of DFMO inhibition of polyamine synthesis to the earlier report where polyamine synthesis was affected via gene deletion in TIGR4[24]. […] Cells were harvested (5000×g, 10 min, 4 °C), re-suspended in extraction solvent [40% acetonitrile, 40% methanol, 20% water with formic acid (0.1 M)] and transferred to bead-beater tubes (MP Biomedicals, Irvine, CA, USA). Cells were lysed using a FastPrep-24™ Classic (45 s, 6.5 m/s, RT, 3 times) (MP Biomedicals, Irvine, CA, USA) and incubated on ice (5 min after each spin). TIGR4 lysates were clarified (6000×g, 5 min, 4 °C), and metabolite differentiation and detection were performed using published protocols[28],[29]. Liquid chromatography-mass spectrometry-based (LC–MS) metabolomic analysis was performed with an Agilent Accurate Mass 6230 TOF coupled with an Agilent 1290 LC system using a Cogent Diamond Hydride Type C column. Briefly, the mobile phase consisted of the following: solvent A (ddH2O with 0.2% formic acid) and solvent B (acetonitrile with 0.2% formic acid). The gradient used was as follows: 0–2 min, 85% B; 3–5 min, 80% B; 6–7 min, 75% B; 8–9 min, 70% B; 10–11.1 min, 50% B; 11.1–14 min 20% B; 14.1–24 min 5% B followed by a 10 min re-equilibration period at 85% B at a flow rate of 0.4 mL/min. Mass axis dynamics was calibrated by continuous infusion of a reference mass solution using an isocratic pump. […] Metabolite identities were searched for using a mass tolerance of < 0.005 Da. Metabolite concentrations from the 5 biological replicates were normalized to biomass based on measurement of residual peptide content in individual samples using the Pierce BCA Protein Assay kit (Thermo Fisher Scientific, Waltham, MA, USA). Data were analyzed using Profinder B.07.00 software (Agilent Technologies, Santa Clara, CA, USA). Extracted molecular features detected in the mass analyzer were identified using accurate mass values and used to generate empirical molecular formulae using an in-house metabolite database that included known intermediates, amino acid precursors and polyamines and their derivatives. Statistical analysis of metabolite peak intensity data was performed using MetaboAnalyst 4.0[30]. Data were normalized (quantile), log transformed and significant fold change between WT and DFMO-treated WT were identified by Student’s t-test (p ≤ 0.05).

Compound: NCCC[C@](N)(C(=O)O)C(F)F [DFMO, α-difluoromethylornithine]
- less capsule compared to untreated controls (densitometry of immunoblots) (D39 (serotype 2) capsule): ~71%
- concentration that inhibits CPS (D39 (serotype 2) capsule; D39, 1/8 MIC): 34 mM
- total CPS (capsule) by immunoblot (D39 (serotype 2) capsule; D39, DFMO 1/8 MIC 34 mM, agmatine 1/4 MIC 20 mM, AMXT 1501 1/2 MIC 7.4 µM, alone or with agmatine): inhibits the capsule production
- less capsule compared to untreated controls (densitometry of immunoblots) [1]: ~84%
- inhibition of CPS ([1]; serotype 19F, DFMO less than 137 mM): failed to inhibit CPS
- less capsule compared to untreated controls (densitometry of immunoblots) [2]: approximately 85%
- inhibition of CPS ([2]; serotype 4, DFMO less than 137 mM): failed to inhibit CPS
- less capsule compared to untreated controls (densitometry of immunoblots) (WU2 (serotype 3) capsule): ~39%
- inhibition of CPS (WU2 (serotype 3) capsule; serotype 3, DFMO less than 137 mM): failed to inhibit CPS
- 5,10-methylenetetrahydrofolate, fold change TIGR4+DFMO /TIGR4 (S. pneumoniae TIGR4): 4.4
- 5-phospho-α-D-ribose 1-diphosphate (PRPP), fold change TIGR4+DFMO /TIGR4 (S. pneumoniae TIGR4): 3.8
- 6-Phosphogluconate, fold change TIGR4+DFMO /TIGR4 (S. pneumoniae TIGR4): 7.8
- Agmatine, fold change TIGR4+DFMO /TIGR4 (S. pneumoniae TIGR4): -2.0
- Arginine, fold change TIGR4+DFMO /TIGR4 (S. pneumoniae TIGR4): 1.1
- Cadaverine, fold change TIGR4+DFMO /TIGR4 (S. pneumoniae TIGR4): -1.5
- Fructose 6-phosphate, fold change TIGR4+DFMO /TIGR4 (S. pneumoniae TIGR4): -16.8
- Fucose, fold change TIGR4+DFMO /TIGR4 (S. pneumoniae TIGR4): -1.3
- GSH, fold change TIGR4+DFMO /TIGR4 (S. pneumoniae TIGR4): -23.2
- GSSG, fold change TIGR4+DFMO /TIGR4 (S. pneumoniae TIGR4): -41.3
- Galactose 1-phosphate, fold change TIGR4+DFMO /TIGR4 (S. pneumoniae TIGR4): -16.8
- Glucosamine 6-phosphate, fold change TIGR4+DFMO /TIGR4 (S. pneumoniae TIGR4): -21.0
- Glucose 6-phosphate, fold change TIGR4+DFMO /TIGR4 (S. pneumoniae TIGR4): 10.6
- Glyceraldehyde 3-phosphate, fold change TIGR4+DFMO /TIGR4 (S. pneumoniae TIGR4): -308.6
- Lysine, fold change TIGR4+DFMO /TIGR4 (S. pneumoniae TIGR4): -1.7
- Methionine, fold change TIGR4+DFMO /TIGR4 (S. pneumoniae TIGR4): -1.8
- N-Acetylspermidine, fold change TIGR4+DFMO /TIGR4 (S. pneumoniae TIGR4): -1.6
- NADH, fold change TIGR4+DFMO /TIGR4 (S. pneumoniae TIGR4): -358.8
- NADPH, fold change TIGR4+DFMO /TIGR4 (S. pneumoniae TIGR4): 25.1
- Ornithine, fold change TIGR4+DFMO /TIGR4 (S. pneumoniae TIGR4): -1.3
- Putrescine, fold change TIGR4+DFMO /TIGR4 (S. pneumoniae TIGR4): -1.9
- Pyruvate, fold change TIGR4+DFMO /TIGR4 (S. pneumoniae TIGR4): -1.74
- S-adenosylmethionine, fold change TIGR4+DFMO /TIGR4 (S. pneumoniae TIGR4): 64.2
- Sedoheptulose 7-phosphate, fold change TIGR4+DFMO /TIGR4 (S. pneumoniae TIGR4): -13.5
- Spermidine, fold change TIGR4+DFMO /TIGR4 (S. pneumoniae TIGR4): -3.1
- Spermine, fold change TIGR4+DFMO /TIGR4 (S. pneumoniae TIGR4): 26.6
- Tetrahydrofolate, fold change TIGR4+DFMO /TIGR4 (S. pneumoniae TIGR4): -1.4
- UDP, fold change TIGR4+DFMO /TIGR4 (S. pneumoniae TIGR4): -53.1
- UDP-Galactose, fold change TIGR4+DFMO /TIGR4 (S. pneumoniae TIGR4): -66.5
- UDP-Glucose, fold change TIGR4+DFMO /TIGR4 (S. pneumoniae TIGR4): -66.5
- UDP-N-acetylfucosamine, fold change TIGR4+DFMO /TIGR4 (S. pneumoniae TIGR4): 2.3
- UDP-N-acetylgalactosamine, fold change TIGR4+DFMO /TIGR4 (S. pneumoniae TIGR4): -18.9
- UDP-N-acetylglucosamine, fold change TIGR4+DFMO /TIGR4 (S. pneumoniae TIGR4): -18.9
- UDP-N-acetylmannosamine, fold change TIGR4+DFMO /TIGR4 (S. pneumoniae TIGR4): -18.9
- UDP-N-acetylmuramic acid, fold change TIGR4+DFMO /TIGR4 (S. pneumoniae TIGR4): -259.2
- UMP, fold change TIGR4+DFMO /TIGR4 (S. pneumoniae TIGR4): -2.1
